Reference: US20160272645A1, “Heterocyclic Compounds and Methods of Use” (MEDIVATION TECHNOLOGIES, INC., priority 2013, published 2016)

Assays:
Format in all cases: biochemical
BTK = molecular target: T1, BTK (Homo sapiens, UniProt Q06187); assay: BTK kinase profiling, HotSpot radiometric assay (Reaction Biology); details: for inhibition at 0.1 µM: compound 0.1 μM, read-out: BTK @ 0.1 μM (% Inh); for inhibition at 0.1 µM / inhibition at 1 µM / inhibition at 0.01 µM: ATP 10 μM; for inhibition at 1 µM: compound 1 μM, read-out: BTK @ 1 μM (% Inh); for inhibition at 0.01 µM: compound 0.01 μM, read-out: BTK @ 0.01 μM (% Inh)
T1 construct: purchased Reaction Biology Corporation
Description: Compounds of the invention were profiled in a 10 dose IC50 panel against BTK and PI3Kδ, both provided by Reaction Biology Corporation.
(§1) BTK assay: In vitro profiling protein kinases was performed using the “HotSpot” assay platform. Briefly, specific kinase/substrate pairs along with required cofactors were prepared in reaction buffer. Compounds were prepared as 10 mM stock solutions in DMSO. Compounds were delivered into the reaction, followed 15-20 minutes later by addition of a mixture of ATP (Sigma, St. Louis Mo.) and ^33P ATP (Perkin Elmer, Waltham Mass.) to a final concentration of 10 μM. Reactions were carried out at RT for 120 min, followed by spotting of the reactions onto P81 ion exchange filter paper (Whatman Inc., Piscataway, N.J.). Unbound phosphate was removed by extensive washing of filters in 0.75% Phosphoric acid. […] ICso values and curve fits were obtained using Prism (GraphPad Software). Buffer Conditions: 20 mM Hepes (pH 7.5), 10 mM MgCl2, 1 mM EGTA, 0.02% Brij35, 0.02 mg/mL BSA, 0.1 mM Na3VO4, 2 mM DTT, 1% DMSO.

PI3Kα = molecular target: T2, PI3Kα (Homo sapiens, UniProt P42336); assay: PI3K isoform profiling, PI3Kα (PI3Kδ protocol); details: for IC50: 10 dose IC50; for inhibition at 0.3 µM: compound 0.3 μM, read-out: PI3Kα @ 0.3 μM (% Inh)
T2 construct: purchased Reaction Biology Corporation
Excerpt: (§2) PI3Kδ assay: The PIP3 product is detected by displacement of biotin-PIP3 from an energy transfer complex consisting of Europium labeled anti-GST monoclonal antibody, a GST-tagged pleckstrin homology (PH) domain, biotinylated PIP3 and Streptavidin-Allophycocyanin (APC). Excitation of Europium in the complex results in an energy transfer to the APC and a fluorescent emission at 665 nm. The PIP3 product formed by PI3-Kinase (h) activity displaces biotin-PIP3 from the complex resulting in a loss of energy transfer and thus a decrease in signal. This is a 3-step reaction: First, the kinase reaction with PIP2 substrate is carried out in the presence of ATP (10 μM), and the reaction is quenched with stop Solution, and then finally detect by adding Detection Mixture followed by incubation (10 min). Reaction procedure: 1) Prepare substrate in freshly prepared Reaction Buffer. 2) Deliver kinase into the substrate solution and gently mix. 3) Deliver compounds in 100% DMSO (1 μM) into the kinase reaction mixture by Acoustic technology (Echo550; nanoliter range), incubate for 10 min at RT. 4) Deliver ATP into the reaction mixture to initiate the reaction. 5) Incubate for 30 min at 30° C. 6) Quench the reaction with Stop Solution. 7) Add Detection Mixture, and incubate for overnight. 8) Measure HTRF: Ex=320 nm, ratio of Em=615 nm and Em=665 nm. The emission ratio is converted into μM PIP3 production based on PIP3 standard curves. The nonlinear regression to obtain the standard curve and IC50 values are performed using Graphpad Prism software. Assay Buffer: HEPES 50 mM (pH7.0), NaN3 0.02%, BSA 0.01%, Orthovanadate 0.1 mM, 1% DMSO. Detection buffer: HEPES 10 mM (pH7.0), BSA 0.02%, KF 0.16 M, EDTA 4 mM. Substrate: 10 μM PIP2 substrate (PI(4,5)P2).
(§3) Compounds of the invention were profiled in a 10 dose IC50 panel against PI3Kα, PI3Kβ, and PI3Kγ kinases, provided by Reaction Biology Corporation, applied to the PI3Kδ protocol provided in Example B1.

ITK = molecular target: T3, ITK (Homo sapiens, UniProt Q08881); assay: ITK kinase profiling (BTK protocol); details: compound 0.3 μM; read-out: ITK @ 0.3 μM (% Inh)
T3 construct: purchased Reaction Biology Corporation
T3 sequence (Q08881 1-620): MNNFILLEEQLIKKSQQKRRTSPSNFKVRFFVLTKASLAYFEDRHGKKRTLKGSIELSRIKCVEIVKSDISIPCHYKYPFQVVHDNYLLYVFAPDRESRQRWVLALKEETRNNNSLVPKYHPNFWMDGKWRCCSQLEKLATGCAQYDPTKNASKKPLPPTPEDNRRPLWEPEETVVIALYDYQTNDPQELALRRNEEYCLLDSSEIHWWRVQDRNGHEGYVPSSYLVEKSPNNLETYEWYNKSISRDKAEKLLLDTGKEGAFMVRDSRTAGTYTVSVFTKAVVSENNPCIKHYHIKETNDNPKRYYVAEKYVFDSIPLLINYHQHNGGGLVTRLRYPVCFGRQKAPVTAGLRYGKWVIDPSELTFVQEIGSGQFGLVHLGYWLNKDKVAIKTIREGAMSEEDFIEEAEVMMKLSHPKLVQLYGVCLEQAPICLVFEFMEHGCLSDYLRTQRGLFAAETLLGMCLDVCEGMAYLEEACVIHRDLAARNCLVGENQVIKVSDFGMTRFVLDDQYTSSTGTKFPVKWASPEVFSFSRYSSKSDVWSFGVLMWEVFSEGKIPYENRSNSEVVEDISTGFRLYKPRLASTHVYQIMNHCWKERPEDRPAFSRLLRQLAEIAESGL
Description: as §1
(§4) Compounds of the invention were profiled in a 10 dose IC50 panel against BMX/ETK, ITK and TEC kinases, provided by Reaction Biology Corporation, applied to the BTK protocol provided in Example B1.

BMX/ETK = molecular target: T4, BMX/ETK (Homo sapiens, UniProt P51813); assay: BMX/ETK kinase profiling (BTK protocol); details: compound 0.3 μM; read-out: BMX/ETK @ 0.3 μM (% Inh)
T4 construct: purchased Reaction Biology Corporation
T4 sequence (P51813 1-675): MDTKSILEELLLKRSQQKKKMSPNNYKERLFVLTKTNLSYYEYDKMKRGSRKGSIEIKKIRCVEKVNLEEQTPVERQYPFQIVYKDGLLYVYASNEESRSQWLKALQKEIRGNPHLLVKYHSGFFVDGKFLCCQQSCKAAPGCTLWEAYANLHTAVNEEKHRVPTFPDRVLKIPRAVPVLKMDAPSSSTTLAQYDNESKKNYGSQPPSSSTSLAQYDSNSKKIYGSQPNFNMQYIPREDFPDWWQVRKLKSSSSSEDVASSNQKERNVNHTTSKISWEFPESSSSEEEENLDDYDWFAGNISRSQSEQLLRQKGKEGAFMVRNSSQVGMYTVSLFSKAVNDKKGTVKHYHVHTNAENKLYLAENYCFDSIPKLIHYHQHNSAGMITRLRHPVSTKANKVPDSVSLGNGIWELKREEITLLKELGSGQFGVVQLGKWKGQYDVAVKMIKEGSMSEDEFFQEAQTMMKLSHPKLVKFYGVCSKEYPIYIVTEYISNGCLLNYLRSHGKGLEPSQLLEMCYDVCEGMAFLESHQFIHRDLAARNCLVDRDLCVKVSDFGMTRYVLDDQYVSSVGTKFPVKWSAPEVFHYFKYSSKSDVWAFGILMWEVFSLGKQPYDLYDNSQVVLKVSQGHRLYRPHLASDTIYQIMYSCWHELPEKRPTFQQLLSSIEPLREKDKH
Description: as §1, §4

PI3Kβ = molecular target: T5, PI3Kβ (Homo sapiens, UniProt P42338); assay: PI3K isoform profiling, PI3Kβ (PI3Kδ protocol); details: for inhibition at 0.3 µM: compound 0.3 μM, read-out: PI3Kβ @ 0.3 μM (% Inh); for IC50: 10 dose IC50
T5 construct: purchased Reaction Biology Corporation
Excerpt: as §2, §3

T1 sequence (Q06187 whole entry): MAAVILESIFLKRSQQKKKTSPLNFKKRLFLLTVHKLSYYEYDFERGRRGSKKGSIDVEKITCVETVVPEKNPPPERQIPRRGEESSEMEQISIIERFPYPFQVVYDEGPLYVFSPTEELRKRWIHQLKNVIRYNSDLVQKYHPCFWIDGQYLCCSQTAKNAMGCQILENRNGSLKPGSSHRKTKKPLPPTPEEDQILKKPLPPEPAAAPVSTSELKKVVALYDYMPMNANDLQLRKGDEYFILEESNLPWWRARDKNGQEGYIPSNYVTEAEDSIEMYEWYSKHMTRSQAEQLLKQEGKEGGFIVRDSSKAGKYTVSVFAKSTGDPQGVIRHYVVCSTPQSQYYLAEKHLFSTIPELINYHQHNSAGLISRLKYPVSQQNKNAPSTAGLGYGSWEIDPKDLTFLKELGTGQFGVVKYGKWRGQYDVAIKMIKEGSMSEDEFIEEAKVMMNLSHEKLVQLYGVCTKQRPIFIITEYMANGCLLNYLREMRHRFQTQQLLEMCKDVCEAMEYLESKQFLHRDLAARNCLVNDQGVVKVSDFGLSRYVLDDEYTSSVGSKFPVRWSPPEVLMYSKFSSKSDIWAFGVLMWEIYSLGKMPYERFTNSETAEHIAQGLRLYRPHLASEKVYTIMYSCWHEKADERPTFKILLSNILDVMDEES
T5 sequence (P42338 whole entry, canonical isoform): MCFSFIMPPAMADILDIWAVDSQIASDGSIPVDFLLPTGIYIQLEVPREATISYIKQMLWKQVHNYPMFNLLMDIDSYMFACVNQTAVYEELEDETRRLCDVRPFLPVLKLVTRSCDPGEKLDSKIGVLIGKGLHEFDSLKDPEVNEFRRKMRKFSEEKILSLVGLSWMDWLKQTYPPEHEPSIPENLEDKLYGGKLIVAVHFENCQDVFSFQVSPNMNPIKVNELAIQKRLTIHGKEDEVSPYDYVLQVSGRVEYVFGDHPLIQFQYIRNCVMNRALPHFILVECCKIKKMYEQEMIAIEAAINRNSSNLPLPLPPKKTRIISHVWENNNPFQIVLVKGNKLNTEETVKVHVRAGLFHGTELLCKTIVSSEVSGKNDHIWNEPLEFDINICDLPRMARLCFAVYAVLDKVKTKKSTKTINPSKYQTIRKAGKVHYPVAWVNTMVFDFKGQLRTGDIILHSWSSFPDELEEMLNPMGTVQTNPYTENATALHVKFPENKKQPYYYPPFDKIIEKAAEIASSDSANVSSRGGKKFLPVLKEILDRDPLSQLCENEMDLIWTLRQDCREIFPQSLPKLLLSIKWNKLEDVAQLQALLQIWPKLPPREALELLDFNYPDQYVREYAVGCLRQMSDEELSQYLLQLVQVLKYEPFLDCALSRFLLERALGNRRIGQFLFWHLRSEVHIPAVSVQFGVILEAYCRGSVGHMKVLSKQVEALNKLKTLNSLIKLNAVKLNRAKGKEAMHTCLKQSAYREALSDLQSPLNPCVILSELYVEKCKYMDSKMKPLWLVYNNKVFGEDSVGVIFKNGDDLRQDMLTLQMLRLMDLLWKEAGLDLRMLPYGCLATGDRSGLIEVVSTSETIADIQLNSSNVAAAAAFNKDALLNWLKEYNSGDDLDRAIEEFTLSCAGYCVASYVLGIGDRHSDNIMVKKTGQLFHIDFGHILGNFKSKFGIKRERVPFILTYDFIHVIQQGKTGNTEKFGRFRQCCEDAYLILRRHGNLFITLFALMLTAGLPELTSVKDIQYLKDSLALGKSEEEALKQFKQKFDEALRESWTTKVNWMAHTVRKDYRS
T5 sequence (P27986 whole entry partner, canonical isoform): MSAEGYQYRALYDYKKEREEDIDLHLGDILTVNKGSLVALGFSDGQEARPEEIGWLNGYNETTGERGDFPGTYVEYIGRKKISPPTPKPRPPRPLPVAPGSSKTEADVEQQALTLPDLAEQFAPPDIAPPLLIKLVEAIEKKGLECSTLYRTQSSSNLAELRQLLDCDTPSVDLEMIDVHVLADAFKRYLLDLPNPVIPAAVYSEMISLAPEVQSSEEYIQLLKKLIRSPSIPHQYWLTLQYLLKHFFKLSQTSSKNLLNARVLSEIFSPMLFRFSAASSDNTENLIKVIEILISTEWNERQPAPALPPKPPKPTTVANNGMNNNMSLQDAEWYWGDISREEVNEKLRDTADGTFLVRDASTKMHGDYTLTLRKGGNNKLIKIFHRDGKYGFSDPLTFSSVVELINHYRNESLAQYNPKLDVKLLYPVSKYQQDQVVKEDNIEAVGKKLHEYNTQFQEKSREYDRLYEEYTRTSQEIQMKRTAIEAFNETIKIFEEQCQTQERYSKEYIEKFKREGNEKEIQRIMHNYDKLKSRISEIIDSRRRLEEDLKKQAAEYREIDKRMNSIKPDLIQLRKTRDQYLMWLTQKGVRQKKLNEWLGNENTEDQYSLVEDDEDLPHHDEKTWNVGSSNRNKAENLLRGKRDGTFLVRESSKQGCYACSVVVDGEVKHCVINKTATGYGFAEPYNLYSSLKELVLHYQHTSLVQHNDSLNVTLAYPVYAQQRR
T2 sequence (P42336 whole entry, canonical isoform): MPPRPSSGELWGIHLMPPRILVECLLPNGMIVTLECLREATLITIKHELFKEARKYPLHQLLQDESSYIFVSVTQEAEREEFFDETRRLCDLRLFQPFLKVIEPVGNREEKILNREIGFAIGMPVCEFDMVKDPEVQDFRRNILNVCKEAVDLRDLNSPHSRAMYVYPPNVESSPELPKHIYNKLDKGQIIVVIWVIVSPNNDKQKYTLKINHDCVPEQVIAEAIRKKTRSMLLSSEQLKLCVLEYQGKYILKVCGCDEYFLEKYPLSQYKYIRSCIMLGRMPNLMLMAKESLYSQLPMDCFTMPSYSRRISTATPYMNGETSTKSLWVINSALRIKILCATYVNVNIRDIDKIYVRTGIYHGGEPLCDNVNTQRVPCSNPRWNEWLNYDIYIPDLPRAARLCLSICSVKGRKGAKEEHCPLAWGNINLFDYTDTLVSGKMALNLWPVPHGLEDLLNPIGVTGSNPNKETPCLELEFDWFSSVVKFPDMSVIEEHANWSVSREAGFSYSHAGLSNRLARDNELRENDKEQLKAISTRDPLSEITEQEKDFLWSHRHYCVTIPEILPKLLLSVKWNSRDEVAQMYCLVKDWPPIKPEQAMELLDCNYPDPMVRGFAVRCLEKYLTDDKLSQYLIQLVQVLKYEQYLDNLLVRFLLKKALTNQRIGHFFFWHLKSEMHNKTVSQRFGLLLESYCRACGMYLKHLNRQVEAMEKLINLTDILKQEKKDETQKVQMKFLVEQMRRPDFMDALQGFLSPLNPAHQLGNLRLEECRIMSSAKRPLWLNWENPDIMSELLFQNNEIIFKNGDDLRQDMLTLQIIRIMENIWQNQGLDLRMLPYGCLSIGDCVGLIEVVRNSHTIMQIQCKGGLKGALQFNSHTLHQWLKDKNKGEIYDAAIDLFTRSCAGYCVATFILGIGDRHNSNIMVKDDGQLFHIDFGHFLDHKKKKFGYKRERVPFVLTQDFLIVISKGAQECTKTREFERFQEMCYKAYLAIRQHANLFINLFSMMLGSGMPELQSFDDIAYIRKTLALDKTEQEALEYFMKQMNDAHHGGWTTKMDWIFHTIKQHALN
T2 sequence (P27986 whole entry partner, canonical isoform): as the sequence (P27986 whole entry partner, canonical isoform) above

SMILES	IC50 (BTK)	inhibition at 0.1 µM (BTK)	inhibition at 1 µM (BTK)	IC50 (PI3Kα)	inhibition at 0.3 µM (ITK)	inhibition at 0.3 µM (BMX/ETK)	inhibition at 0.3 µM (PI3Kβ)	inhibition at 0.01 µM (BTK)	inhibition at 0.3 µM (PI3Kα)	IC50 (PI3Kβ)
C=CC(=O)N(CCn1nc(-c2cc(O)cc(F)c2)c2c(N)ncnc21)Cc1ccc(F)cc1 [Compound 10, N-{2-[4-amino-3-(3-fluoro-5-hydroxyphenyl)-1H-pyrazolo [3,4-d]pyrimidin-1-yl]ethyl}-N-[(4-fluorophenyl)methyl]prop-2-enamide]	3 nM	95.4%	98.3%	504 nM	30.5%	93%	16.3%			
C=CC(=O)N(CCn1nc(-c2cc(O)c(F)c(F)c2)c2c(N)ncnc21)Cc1ccc(Cl)cc1 [Compound 16, N-{2-[4-amino-3-(3,4-difluoro-5-hydroxyphenyl)-1H-pyrazolo[3,4-d]pyrimidin-1-yl]ethyl}-N-[(4-chlorophenyl)methyl]prop-2-enamide]	2.7 nM	93.8%		290 nM	8.93%	97.2%	25.2%	63.4%		
C=CC(=O)N(CCn1nc(-c2cc(O)cc(F)c2)c2c(N)ncnc21)Cc1ccccc1 [Compound 5, N-(2-(4-amino-3-(3-fluoro-5-hydroxyphenyl)-1H-pyrazolo[3,4-d]pyrimidin-1-yl)ethyl)-N-benzylacrylamide]	3.7 nM	94%		3320 nM	10.2%	92.5%	45.8%		26.4%	3410 nM
Nc1ncnc2c1c(-c1cc(O)cc(F)c1)nn2CCNc1ccccc1 [Compound 1, 3-(4-amino-1-(2-(phenylamino)ethyl)-1H-pyrazolo [3,4-d]pyrimidin-3-yl)-5-fluorophenol]	167 nM				0.06%	43.5%	62%		50.5%	
C=CC(=O)N(CCn1nc(-c2cc(O)cc(F)c2)c2c(N)ncnc21)Cc1ccc(Cl)cc1 [Compound 12, N-{2-[4-amino-3-(3-fluoro-5-hydroxyphenyl)-1H-pyrazolo[3,4-d]pyrimidin-1-yl]ethyl}-N-[(4-chlorophenyl)methyl]prop-2-enamide]	0.4 nM	94.4%		869 nM	62.5%	94.2%	31.3%	62.8%		
C=CC(=O)N(CCn1nc(-c2cc(O)cc(F)c2)c2c(N)ncnc21)c1ccccc1 [Compound 2, N-(2-(4-amino-3-(3-fluoro-5-hydroxyphenyl)-1H-pyrazolo[3,4-d]pyrimidin-1-yl)ethyl)-N-phenylacrylamide]	3.9 nM	94.1%		4210 nM	50.7%	98.5%	30.4%		20.1%	5280 nM
C=CC(=O)N(CCn1nc(-c2cc(O)cc(F)c2)c2c(N)ncnc21)Cc1ccccc1F [Compound 11, N-[2-[4-amino-3-(3-fluoro-5-hydroxy-phenyl)pyrazolo[3,4-d]pyrimidin-1-yl]ethyl]-N-[(2-fluorophenyl)methyl]prop-2-enamide]	7.4 nM	93.8%	97.2%	3220 nM	34.7%	93.5%	41%			
